As usually defined, the IC50 is the concentration that inhibits the measured activity by half.

The text below walks through data of US9926281B2 (priority 2014, dated 2018).

One experiment has as its target human TACE (Homo sapiens (Human), UniProt P78536). Conditions: read-out: TACE potency IC50.
For a further experiment, the target named is human MMP13 (Homo sapiens (Human), UniProt P45452). Conditions: read-out: hMMP-13 potency IC50.
The target of the next experiment is human ADAMTS-5 (Homo sapiens (Human), UniProt Q9UNA0). The following applies: read-out: hADAMTS-5 potency IC50.
Sequence of human ADAMTS-5 (Q9UNA0 262-930): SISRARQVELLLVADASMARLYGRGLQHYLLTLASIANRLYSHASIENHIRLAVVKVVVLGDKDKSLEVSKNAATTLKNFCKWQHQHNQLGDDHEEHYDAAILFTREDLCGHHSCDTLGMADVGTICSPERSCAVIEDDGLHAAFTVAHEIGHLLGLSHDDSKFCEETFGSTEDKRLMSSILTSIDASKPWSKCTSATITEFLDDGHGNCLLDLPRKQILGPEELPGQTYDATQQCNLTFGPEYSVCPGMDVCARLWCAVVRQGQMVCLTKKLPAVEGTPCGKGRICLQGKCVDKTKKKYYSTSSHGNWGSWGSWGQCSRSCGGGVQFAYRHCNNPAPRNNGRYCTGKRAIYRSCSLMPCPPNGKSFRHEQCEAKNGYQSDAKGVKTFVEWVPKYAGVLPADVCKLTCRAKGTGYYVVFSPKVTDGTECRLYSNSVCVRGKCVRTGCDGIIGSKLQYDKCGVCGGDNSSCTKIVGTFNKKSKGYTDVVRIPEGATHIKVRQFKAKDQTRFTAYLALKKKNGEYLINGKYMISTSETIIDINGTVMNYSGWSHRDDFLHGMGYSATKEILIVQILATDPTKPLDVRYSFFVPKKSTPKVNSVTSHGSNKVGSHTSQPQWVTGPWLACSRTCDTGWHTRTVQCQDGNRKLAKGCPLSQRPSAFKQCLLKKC

Sequence of human TACE (P78536 whole entry, looked up, change not shown): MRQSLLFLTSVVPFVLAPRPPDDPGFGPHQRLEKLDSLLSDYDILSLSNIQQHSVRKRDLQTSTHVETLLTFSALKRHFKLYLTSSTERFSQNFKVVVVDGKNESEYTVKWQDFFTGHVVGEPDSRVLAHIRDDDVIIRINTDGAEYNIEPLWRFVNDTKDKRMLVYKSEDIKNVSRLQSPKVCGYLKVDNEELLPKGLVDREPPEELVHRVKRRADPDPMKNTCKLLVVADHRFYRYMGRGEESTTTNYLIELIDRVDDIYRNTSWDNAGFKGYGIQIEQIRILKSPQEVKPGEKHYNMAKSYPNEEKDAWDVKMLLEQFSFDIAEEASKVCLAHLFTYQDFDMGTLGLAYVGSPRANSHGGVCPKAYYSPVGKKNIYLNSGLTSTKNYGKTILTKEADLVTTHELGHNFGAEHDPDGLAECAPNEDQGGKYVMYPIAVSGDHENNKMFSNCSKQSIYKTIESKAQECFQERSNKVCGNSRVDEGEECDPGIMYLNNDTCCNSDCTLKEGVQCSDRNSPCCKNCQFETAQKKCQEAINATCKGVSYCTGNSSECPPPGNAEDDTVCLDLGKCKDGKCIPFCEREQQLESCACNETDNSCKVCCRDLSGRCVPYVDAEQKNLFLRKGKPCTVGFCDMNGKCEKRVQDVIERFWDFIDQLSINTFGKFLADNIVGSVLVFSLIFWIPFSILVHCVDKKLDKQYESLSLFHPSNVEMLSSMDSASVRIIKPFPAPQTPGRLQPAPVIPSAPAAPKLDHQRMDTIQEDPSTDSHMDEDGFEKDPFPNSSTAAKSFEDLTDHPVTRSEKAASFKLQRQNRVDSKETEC
Method for human ADAMTS-5: Finally, the fluorescence is read on the Envision (Perkin Elmer) after an incubation of 90 min at 37° C.
Method for human MMP13: Human MMP13 is preactivated by incubated the enzyme in the same buffer complemented with 1 mM freshly prepared p-Aminophenylmercuric acetate (AMPA) for 1 hour at 37° C.

With `CN(C)Cc1ccc(C2(CCC(=O)N3CCN(c4cccc(Cl)c4)CC3)NC(=O)NC2=O)cc1` (centres unmarked) [compound 83, 5-[3-[4-(3-chlorophenyl)piperazin-1-yl]-3-oxo-propyl]-5-[4-(dimethylaminomethyl)phenyl]imidazolidine-2,4-dione], the values for the IC50 on human TACE and at human MMP13 were 2490 nM and > 4000 nM, respectively.

For the compound `CN(C)CC1(CCC(=O)N2CCN(c3cccc(Cl)c3)CC2)NC(=O)NC1=O` (centres unmarked) [compound 118, 5-[3-[4-(3-chlorophenyl)piperazin-1-yl]-3-oxo-propyl]-5-(dimethylaminomethyl)imidazolidine-2,4-dione], the IC50 is > 4000 nM at human TACE and > 20000 nM at human MMP13.

For the compound `Cc1ccc(Cl)cc1N1CCN(C(=O)CCC2(CN(C)C)NC(=O)NC2=O)CC1` (centres unmarked) [compound 120, 5-[3-[4-(5-chloro-2-methyl-phenyl)piperazin-1-yl]-3-oxo-propyl]-5-(dimethylaminomethyl)imidazolidine-2,4-dione], the 50% inhibitory concentration (IC50) at human TACE was > 4000 nM; at human MMP13 it was > 20000 nM.

For `CCC1(CCC(=O)N2CCN(c3cccc(Cl)c3)CC2)NC(=O)NC1=O` (centres unmarked) [compound 122, 5-[3-[4-(3-chlorophenyl)piperazin-1-yl]-3-oxo-propyl]-5-ethyl-imidazolidine-2,4-dione], the values for the IC50 at human TACE and at human MMP13 were > 4000 nM and > 20000 nM, respectively.

For the compound `CC1CN(C(=O)CCC2(c3cccnc3)NC(=O)NC2=O)CCN1c1cc(Cl)cc(Cl)c1` (centres unmarked) [compound 127, 5-[3-[4-(3,5-dichlorophenyl)-3-methyl-piperazin-1-yl]-3-oxo-propyl]-5-(3-pyridyl)imidazolidine-2,4-dione], the IC50 at human TACE is > 4000 nM; at human MMP13, > 20000 nM.

Regarding `CC1(CCC(=O)N2CCN(c3cc(F)cc(F)c3)CC2)NC(=O)NC1=O` (centres unmarked) [compound 140, 5-[3-[4-(3,5-difluorophenyl)piperazin-1-yl]-3-oxo-propyl]-5-methyl-imidazolidine-2,4-dione], the IC50 at human TACE is > 20000 nM; at human MMP13 it was > 4000 nM.

With `O=C1NC(=O)C(CCC(=O)N2CCN(c3cccc(Cl)c3)CC2)(CN2CCOCC2)N1` (centres unmarked) [compound 155, 5-[3-[4-(3-chlorophenyl)piperazin-1-yl]-3-oxo-propyl]-5-(morpholinomethyl)imidazolidine-2,4-dione], the IC50 at human TACE is > 20000 nM; on human ADAMTS-5 it was 1250 nM; on human MMP13, > 20000 nM.

`C[C@H]1CN(C(=O)CCC2(C)NC(=O)NC2=O)CCN1c1ccc(F)c(F)c1` (stereo partly drawn) [compound 165, 5-[3-[(3S)-4-(3,4-difluorophenyl)-3-methyl-piperazin-1-yl]-3-oxo-propyl]-5-methyl-imidazolidine-2,4-dione]: the IC50 is > 20000 nM at human TACE, 207 nM at human ADAMTS-5 and > 20000 nM on human MMP13.

Take `C[C@H]1CN(C(=O)CCC2(C)NC(=O)NC2=O)CCN1c1ccc(F)c(Cl)c1` (stereo partly drawn) [compound 166, 5-[3-[(3S)-4-(3-chloro-4-fluoro-phenyl)-3-methyl-piperazin-1-yl]-3-oxo-propyl]-5-methyl-imidazolidine-2,4-dione]: the IC50 was > 20000 nM at human TACE, 264 nM on human ADAMTS-5 and > 20000 nM at human MMP13.

In the case of `NCC1(CCC(=O)N2CCN(c3cccc(Cl)c3)CC2)NC(=O)NC1=O` (centres unmarked) [compound 171, 5-(aminomethyl)-5-[3-[4-(3-chlorophenyl)piperazin-1-yl]-3-oxo-propyl]imidazolidine-2,4-dione], the IC50 at human TACE is > 20000 nM; at human ADAMTS-5, 305 nM; on human MMP13 it was > 4000 nM.

Take `O=C1NC(=O)C(CC(O)C(=O)N2CCN(c3cc(Cl)cc(Cl)c3)CC2)(C2CC2)N1` (centres unmarked) [compound 201, 5-cyclopropyl-5-[3-[4-(3,5-dichlorophenyl)piperazin-1-yl]-2-hydroxy-3-oxo-propyl]imidazolidine-2,4-dione]: the values for the IC50 at human TACE, at human ADAMTS-5 and on human MMP13 were > 20000 nM, 307 nM and > 20000 nM, respectively.

For the compound `CC1(CC(CO)C(=O)N2CCN(c3cc(Cl)cc(Cl)c3)CC2)NC(=O)NC1=O` (centres unmarked) [compound 220, 5-[3-[4-(3,5-dichlorophenyl)piperazin-1-yl]-2-(hydroxymethyl)-3-oxo-propyl]-5-methyl-imidazolidine-2,4-dione], the IC50 was 245 nM at human TACE, 18 nM on human ADAMTS-5 and > 4000 nM on human MMP13.

For the compound `COCC1(CC(C)C(=O)N2CCN(c3cc(Cl)cc(Cl)c3)CC2)NC(=O)NC1=O` (centres unmarked) [compound 222, 5-[3-[4-(3,5-dichlorophenyl)piperazin-1-yl]-2-methyl-3-oxo-propyl]-5-(methoxymethyl)imidazolidine-2,4-dione], the IC50 was 337 nM on human TACE, 20 nM at human ADAMTS-5 and > 4000 nM at human MMP13.

Consider `COCC1(CC(C)C(=O)N2CCN(c3cc(F)cc(F)c3)[C@@H](C)C2)NC(=O)NC1=O` (stereo partly drawn) [compound 225, 5-[3-[(3S)-4-(3,5-difluorophenyl)-3-methyl-piperazin-1-yl]-2-methyl-3-oxo-propyl]-5-(methoxymethyl)imidazolidine-2,4-dione], for which the IC50 is > 20000 nM on human TACE, 28 nM at human ADAMTS-5 and 3940 nM on human MMP13.

Take `CC(CC1(c2ccccn2)NC(=O)NC1=O)C(=O)N1CCN(c2cc(Cl)cc(Cl)c2)CC1` (centres unmarked) [compound 231, 5-[3-[4-(3,5-dichlorophenyl)piperazin-1-yl]-2-methyl-3-oxo-propyl]-5-(2-pyridyl)imidazolidine-2,4-dione]: the IC50 was 106 nM at human TACE, 20 nM at human ADAMTS-5 and 766 nM at human MMP13.

On to `CCC(CC1(C)NC(=O)NC1=O)C(=O)N1CCN(c2cc(Cl)cc(Cl)c2)CC1` (centres unmarked) [compound 236, 5-[2-[4-(3,5-dichlorophenyl)piperazine-1-carbonyl]butyl]-5-methyl-imidazolidine-2,4-dione], for which the results for the IC50 on human TACE, at human ADAMTS-5 and at human MMP13 were 225 nM, 15 nM and 1220 nM, respectively.

For the compound `O=C1NC(=O)C(CCC(=O)N2CCN(c3cc(Cl)cc(Cl)c3)CC2)(c2ccccn2)N1` (centres unmarked) [compound 407, 5-(3-(4-(3,5-dichlorophenyl)piperazin-1-yl)-3-oxopropyl)-5-(pyridin-2-yl)imidazolidine-2,4-dione], the results for the IC50 on human TACE and at human MMP13 were 479 nM and > 20000 nM, respectively.

With `C[C@H]1CN(C(=O)CCC2(C3CC3)NC(=O)NC2=O)CCN1c1ccc(Cl)c(Cl)c1` (stereo partly drawn) [compound 408, 5-cyclopropyl-5-(3-((S)-4-(3,4-dichlorophenyl)-3-methylpiperazin-1-yl)-3-oxopropyl)imidazolidine-2,4-dione], the results for the IC50 at human TACE, at human ADAMTS-5 and at human MMP13 were > 4000 nM, 19 nM and > 4000 nM, respectively.

For the compound `CC(CC1(C2CC2)NC(=O)NC1=O)C(=O)N1CCN(c2cc(Cl)cc(Cl)c2)CC1` (centres unmarked) [compound 409, 5-cyclopropyl-5-(3-(4-(3,5-dichlorophenyl)piperazin-1-yl)-2-methyl-3-oxopropyl)imidazolidine-2,4-dione], the IC50 on human TACE amounted to 311 nM; on human ADAMTS-5, 17 nM; at human MMP13, 2740 nM.

On to `CC(CC1(C)NC(=O)NC1=O)C(=O)N1CCN(c2cc(Cl)cc(Cl)c2)CC1` (centres unmarked) [compound 410, 5-(3-(4-(3,5-dichlorophenyl)piperazin-1-yl)-2-methyl-3-oxopropyl)-5-methylimidazolidine-2,4-dione], for which the figures for the IC50 at human TACE, at human ADAMTS-5 and on human MMP13 were 170 nM, 22 nM and > 4000 nM, respectively.

For `CC(CC1(C2CC2)NC(=O)NC1=O)C(=O)N1CCN(c2ccc(F)c(Cl)c2)[C@@H](C)C1` (stereo partly drawn) [compound 411, 5-(3-((S)-4-(3-chloro-4-fluorophenyl)-3-methylpiperazin-1-yl)-2-methyl-3-oxopropyl)-5-cyclopropylimidazolidine-2,4-dione], the IC50 at human TACE was > 4000 nM; on human ADAMTS-5, 11 nM; on human MMP13 it was 865 nM.

For `CC(CC1(C2CC2)NC(=O)NC1=O)C(=O)N1CCN(c2ccc(Cl)cc2)[C@@H](C)C1` (stereo partly drawn) [compound 412, 5-(3-((S)-4-(4-chlorophenyl)-3-methylpiperazin-1-yl)-2-methyl-3-oxopropyl)-5-cyclopropylimidazolidine-2,4-dione], the IC50 on human TACE was > 20000 nM; on human ADAMTS-5, 13 nM; at human MMP13 it was 433 nM.

On to `CC(CC1(C2CC2)NC(=O)NC1=O)C(=O)N1CCN(c2cc(F)cc(Cl)c2)[C@@H](C)C1` (stereo partly drawn) [compound 413, 5-(3-((S)-4-(3-chloro-5-fluorophenyl)-3-methylpiperazin-1-yl)-2-methyl-3-oxopropyl)-5-cyclopropylimidazolidine-2,4-dione], for which the IC50 was > 4000 nM at human TACE, 11 nM on human ADAMTS-5 and 952 nM on human MMP13.

On to `C[C@H]1CN(C(=O)CC[C@@]2(C)NC(=O)NC2=O)CCN1c1ccc(Cl)c(Cl)c1` [compound 414, (R)-5-(3-((S)-4-(3,4-dichlorophenyl)-3-methylpiperazin-1-yl)-3-oxopropyl)-5-methylimidazolidine-2,4-dione], for which the IC50 on human TACE is > 4000 nM; on human ADAMTS-5 it was 40 nM; at human MMP13 it was > 4000 nM.

Regarding `CC(CC1(COCc2ccccc2)NC(=O)NC1=O)C(=O)N1CCN(c2cc(Cl)cc(Cl)c2)CC1` (centres unmarked) [compound 415, 5-(benzyloxymethyl)-5-(3-(4-(3,5-dichlorophenyl)piperazin-1-yl)-2-methyl-3-oxopropyl)imidazolidine-2,4-dione], the IC50 on human TACE amounted to 396 nM; at human ADAMTS-5 it was 28 nM; on human MMP13, 1300 nM.

On to `COCC1(CC(C)C(=O)N2CCN(c3cc(Cl)cc(Cl)c3C)[C@@H](C)C2)NC(=O)NC1=O` (stereo partly drawn) [compound 430, 5-(3-((S)-4-(3,5-dichloro-2-methylphenyl)-3-methylpiperazin-1-yl)-2-methyl-3-oxopropyl)-5-(methoxymethyl)imidazolidine-2,4-dione], for which the IC50 at human MMP13 was > 20000 nM.

Consider `COCC1(CC(C)C(=O)N2CCN(c3ccc(Cl)c(C(F)(F)F)c3)[C@@H](C)C2)NC(=O)NC1=O` (stereo partly drawn) [compound 478, 5-{3-[(S)-4-(4-Chloro-3-trifluoromethyl-phenyl)-3-methyl-piperazin-1-yl]-2-methyl-3-oxo-propyl}-5-methoxymethyl-imidazolidine-2,4-dione], for which the IC50 at human TACE was > 4000 nM; at human ADAMTS-5, 61 nM.
